The data set is described as follows: Rheology: max tack force and adhesion of 16% F127 gels with additives. It is filed as physicochemical. To be noted: 0.2-1% glycerin added to 16% w/v F127, 37° C., vs no additive. The protocol:
An Anton Paar cone and plate rheometer (model MCR 302) with PP25 probe were used to measure the max tack force and the adhesion. The probe was placed in contact with the sample, and then moved at a controlled rate vertically away from the sample to measure the normal force. The peak force on the curve is considered the max tack force, while the adhesion is the area under the force curve. Samples (200 μL) were transferred to the rheometer sample holder using a Drummond Wiretrol 200 μL wire plunger pipette. The samples were equilibrated between the probe and sample holder with a 1 mm gap for 60 s at the specified temperature. A total of 100 points were measured at 60 s intervals with ramp linear mode (initial was set as −0.005 mm/s and the final was set as −0.5 mm/s). If not specified, n=3-6 per each sample group were measured and each sample were prepared individually. The final data was exported from the Antron Parr RheoCompass. The max tack force and the adhesion were calculated with GraphPad Prism 9. For the temperature ramp viscosity experiment, the loading gap was set to 0.3 mm. […] The raw data with temperature (° C.) and viscosity (mPa*s) measurements were exported from the Anton Parr RheoCompass software and analyzed/plotted with GraphPad Prism 9. […]

As for `OCC(O)CO` [glycerin], the “adhesion of the F127 gels” value is “no measurable effect” and the “max tack force of the F127 gels” value is on record as “no measurable effect”.
